We go through 80 compounds from the METLIN SMRT retention time set (Domingo-Almenara et al. 2019).

The data set in a line: gradient 5% acetonitrile 3 min, to 50% in 2 min, to 85% in 15 min, held 3 min, 100 µL/min. To be noted: column: Zorbax Extend-C18 2.1 x 50 mm; eluents: water / acetonitrile, 0.1% formic acid. The essentials: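 In both positive and negative ionization mode, a quadrupole time-of-flight mass spectrometer coupled to HPLC analyzed pure standards run in mixtures of ~100 molecules. The Zorbax Extend-C18 column (2.1 × 50 mm, 1.8 μm) was operated at 100 μL/min with water and acetonitrile, each containing 0.1% formic acid. The dead volume was 40 μL and the dwell volume 900 μL. Retention time came from adduct peaks that were computationally picked and individually inspected by hand.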
As to `CCNc1nc(-c2ccc(Br)cc2)cs1`, the RP-LC retention time came out at 887 s.

For the compound `Cc1ccc(-c2noc(-c3ccc(N4CCN(Cc5ccc6c(c5)OCO6)CC4)nc3)n2)cc1`, the RP-LC retention time came out at 874 s. For the compound `COc1c(O)ccc2c1CN1CCc3cc4c(cc3C1C2)OCO4` (stereo not given), the RP-LC retention time amounted to 688 s. The value for `COCCNC(=O)Cc1csc(SCC(=O)c2cccs2)n1` was 669 s; that for `O=S(=O)(c1ccc(Cl)c(-c2nnc(-c3ccccc3)o2)c1)N1CCSCC1` was 1070 s; that for `COc1ccc(C)cc1NC(=O)Cn1c(N2CCOCC2)nc(C)cc1=O` was 719 s. `CCc1nc(-c2cc(S(=O)(=O)NCC(=O)NC3CCCC3)c(C)s2)no1` came in with an RP-LC retention time of 843 s. `COc1ccc(-c2cc(N3CCN(C(=O)Nc4cc(OC)cc(OC)c4)CC3)ncn2)cc1` registered an RP-LC retention time of 672 s. The compound `Clc1ccc(-c2noc(CN3CCN(c4ccccn4)CC3)n2)cc1` displayed an RP-LC retention time of 679 s. Regarding `O=S(=O)(c1cccc(-c2nc(-c3ccccc3)no2)c1)N1CCCc2ccccc21`, the RP-LC retention time is 1350 s.

In turn, `CCC1(O)C(=O)OCc2c1cc1n(c2=O)Cc2cc3c(N)cccc3nc2-1` (stereo not given) registered an RP-LC retention time of 632 s. Compound `CNC(=O)c1ccc(-c2nc3cc(NS(=O)(=O)c4ccc(Cl)s4)ccc3n2C)cc1` displayed an RP-LC retention time of 660 s.

Compound `CC(C)Sc1ccc(CC(=O)NCC2(O)CCCC2)cc1` had an RP-LC retention time of 752 s.

For `Cc1ccc(CNC(=O)Cn2nc(N3CCCCCC3)c3ccccc3c2=O)cc1`, the RP-LC retention time was 1100 s. Consider `CCOC(=O)c1c(N)n(Cc2cccc(OC)c2)c2nc3ccccc3nc12`, for which the RP-LC retention time worked out at 750 s. The value for `CN(C)C(CNC(=O)c1cc(-c2cccs2)on1)c1ccc(F)cc1` (stereo not given) was 668 s. Regarding `COC(=O)CCc1sc(Nc2c(C)n[nH]c2C)nc1-c1ccc(OC)cc1`, the RP-LC retention time was found to be 664 s.

Regarding `Cc1cccn2cc(-c3ccc(NS(=O)(=O)c4ccc(Br)cc4)cc3)nc12`, the RP-LC retention time was 674 s. With `CCOc1ccc(Cc2nnc(SCC(=O)c3ccc(OC)cc3)o2)cc1`, the RP-LC retention time was found to be 938 s. To `O=S(=O)(Nc1ccccc1)c1ccc(-c2nnc(C3CCC3)o2)o1` belongs 883 s; to `CC(C)Cn1cc(S(=O)(=O)NCc2cccc(Cl)c2)c2cccnc21`, 1020 s; to `CCc1ccc(NC(=O)N2CCc3cn(CC)c4cccc(c34)C2)cc1`, 1060 s. `CCOC(=O)c1noc2ncnc(NCCc3ccccc3)c12` registered an RP-LC retention time of 936 s.

Compound `CCn1ccc(NC(=O)c2cccc(C)c2)n1` returned an RP-LC retention time of 743 s. The compound `CCn1nc(C(=O)Nc2nc3c(s2)CCc2ccccc2-3)cc1C` had an RP-LC retention time of 1060 s. In the case of `CC(CCc1ccccc1)NC(=O)C1CCN(S(=O)(=O)c2ccc3c(c2)CCCC(=O)N3)CC1` (stereo not given), the RP-LC retention time turned out to be 809 s. The value for `CC1(C(=O)NC2CCCC2)CN(S(=O)(=O)c2ccccc2)CC(=O)N1c1ccc(Cl)cc1` (stereo not given) was 950 s; that for `Fc1ccc(-c2nnc(-c3nc(NC4CCCCC4)c4ccccc4n3)o2)cc1` was 1110 s; that for `CCNC(=O)Nc1ccc2c(c1)CN(Cc1cn(C(C)C)c3ccc(OC)cc13)CCO2` was 726 s. `COc1ccc2[nH]c(=O)c(CCC(=O)NCCc3ccccn3)cc2c1` returned an RP-LC retention time of 576 s.

Take `COc1ccc(-c2noc(-c3cccn(CC(=O)Nc4ccc(C#N)cc4)c3=O)n2)cc1OC`: the RP-LC retention time amounted to 779 s. To `COc1ccc(OC)c(NC(=O)Cn2c(=O)n(-c3ccccc3)c3ncccc32)c1` belongs 841 s; to `Cc1c(C(=O)OCC(=O)Nc2cccc(Cl)c2)nnn1-c1ccccc1`, 946 s.

Turning to `COc1cc(C(=O)Nc2nc3c(s2)CCc2ccccc2-3)cc(OC)c1OC`, the RP-LC retention time was 1110 s. To `COc1cccc(COc2coc(C(=O)Nc3nnc(C)s3)cc2=O)c1` belongs 660 s. As to `CC(C)(C)NC(=O)N1[C@H]2CC[C@@H]1c1cnc(-c3ccccc3)nc1C2`, the RP-LC retention time was found to be 865 s. To `COc1ccc(NC(=O)Cn2nc3c(N4CCSCC4)nccn3c2=O)c(OC)c1` belongs 797 s. Regarding `CCc1ccc(-c2cc3c(=O)n(CC(O)c4ccccc4OC)ccn3n2)cc1` (stereo not given), the RP-LC retention time came out at 790 s. In turn, `Cc1ccc(CN2CC(=O)N3CCc4c([nH]c5ccccc45)C3(C)C2=O)cc1` (stereo not given) returned an RP-LC retention time of 1020 s. Take `O=C(CSc1nnc(CCN2CCOCC2)o1)Nc1ccc(F)c(Cl)c1`: the RP-LC retention time was found to be 571 s. Consider `COc1cccc2c1OC1(C)CC2NC(=O)N1c1cccc(C(=O)O)c1` (stereo not given), for which the RP-LC retention time turned out to be 645 s. The value for `CC(=O)N1CCc2ccccc2C1C(=O)NC1CCCCCC1` (stereo not given) was 831 s. `COc1cc(CNC(=O)c2cccc3c2CCN3C(=O)C2CC2)cc(OC)c1` came in with an RP-LC retention time of 809 s.

Consider `COc1cc(C2Oc3ccc(C4Oc5cc(O)cc(O)c5C(=O)C4O)cc3OC2CO)ccc1O` (stereo not given), for which the RP-LC retention time came out at 685 s. The compound `O=C(c1ccccc1F)N1CCC(n2nc(-c3ccsc3)ccc2=O)CC1` registered an RP-LC retention time of 783 s. For `CCn1ncc2ccc(C(=O)NC)cc21`, the RP-LC retention time came out at 608 s. To `CCN(Cc1ccccc1)S(=O)(=O)c1ccc2c(c1)CCCC(=O)N2` belongs 856 s.

The compound `O=C(C1CCCCC1)N1CCN(c2nc(CN3CCOCC3)cs2)CC1` came in with an RP-LC retention time of 617 s.

With `CN(C)c1cccc(C(=O)Nc2cc(-c3ccsc3)no2)c1`, the RP-LC retention time came out at 927 s.

Regarding `CCOCCCNC(=O)c1c(N2CCCC2=O)c2cc(C)ccc2n1C`, the RP-LC retention time is 782 s.

On to `CCc1cc(C(=O)NCc2ccc(C)o2)nc2cc(-c3ccccn3)nn12`, for which the RP-LC retention time was determined as 778 s. For the compound `Cc1ccccc1-n1c(Cn2ncc3c(N)ncnc32)nc2cccc(C)c2c1=O`, the RP-LC retention time is 719 s.

In the case of `CCOC(=O)c1[nH]c(C)c(CCC(=O)NCCN2CCN(C)CC2)c1C`, the RP-LC retention time was 547 s. With `COC(=O)c1ccc(NC(=O)C(=O)NCC2CCN(Cc3ccco3)CC2)cc1`, the RP-LC retention time stood at 573 s. To `CCOC(=O)c1[nH]c(C)c(CN(Cc2ccccc2)C(=O)c2ccco2)c1C` belongs 946 s. For the compound `O=C(Nc1cnc(N2CCCCC2)nc1)c1ccsc1`, the RP-LC retention time is 800 s. As to `Cc1ccc(-c2nc(C3CC(=O)N(c4ccc(Cl)cc4)C3)no2)cc1` (stereo not given), the RP-LC retention time is 978 s. To `CN(C1=NC(=O)/C(=C/c2cc(Cl)ccc2OCC(=O)O)S1)c1ccc(O)cc1` belongs 669 s; to `Cc1oc2c(C)c3oc(=O)c(CC(=O)N4CCC(C(N)=O)CC4)c(C)c3cc2c1C`, 735 s.

For the compound `CN(CCCNC(=O)C1CCCN(c2ncnc3c2nc2n3CCCCC2)C1)Cc1ccccc1` (stereo not given), the RP-LC retention time was 616 s. `O=C(NCc1ccncc1)c1csc(-c2ccc(N3CCCC3)nc2)n1` came in with an RP-LC retention time of 559 s. The compound `Cc1nc(-c2noc(-c3ccccc3)n2)cn1CC(=O)NCc1ccccc1` yielded an RP-LC retention time of 810 s.

As for `O=C(Nc1ccccc1)[C@@H]1OCC(=O)N(C2CC2)[C@H]1c1ccccc1`, the RP-LC retention time is 775 s.

Turning to `Cc1cc(C)n(-c2ccnc(N3CCN(c4ccccc4F)CC3)n2)n1`, the RP-LC retention time was determined as 1220 s. Consider `CCN1C(=O)CN(C(=O)C2CC2)CC12CCOCC2`, for which the RP-LC retention time worked out at 584 s.

Compound `CC1=C(c2ccc(C)cc2)S(=O)(=O)N=C1N1CCCN(C(=O)Nc2ccccc2)CC1` returned an RP-LC retention time of 846 s. To `Cc1ccc(C)c(N2CCN(c3ccnc(SCC(=O)NC4CCCC4)n3)CC2)c1` belongs 886 s; to `O=C(C1CCN(c2cc(N3CCCCC3)ncn2)CC1)N1CCCCCC1`, 661 s; to `CS(=O)(=O)N1CCCC1C(=O)Nc1ccccc1` (stereo not given), 690 s. As for `Cc1ccc(-n2c(=O)n(C)c(=O)c3cc(C(=O)Nc4ccc5c(c4)OCO5)cnc32)cc1`, the RP-LC retention time came to 907 s. For `CC(Cc1ccco1)NC(=O)CCCn1c2ccccc2c2cnn(C)c(=O)c21` (stereo not given), the RP-LC retention time came out at 775 s. `Cc1ccc(NC(=O)Cn2nc(N3CCCCCC3)c3ccccc3c2=O)c(F)c1` came in with an RP-LC retention time of 1190 s. With `Cn1nc(CNC(=O)C2(C)CCCCC2)c2c1CCN(S(C)(=O)=O)C2`, the RP-LC retention time was determined as 702 s.

As to `CC(C)CCNC(=O)NCCn1nnc2cc(C(=O)N3CCCC3)ccc21`, the RP-LC retention time turned out to be 657 s. In the case of `CCCN(CCC)[C@@H]1CCc2c(OC)cccc2[C@@H]1C`, the RP-LC retention time was 802 s. For `CC(=O)c1ccc(OC(=O)c2cc3c(C)nn(-c4ccccc4)c3s2)cc1`, the RP-LC retention time worked out at 1310 s. To `CN1CCN(c2cc(C(=O)O)c3cc(NS(=O)(=O)c4ccc(Cl)c(Cl)c4)ccc3n2)CC1` belongs 644 s; to `O=C(NCc1cc(F)cc(F)c1)c1cn2c(n1)CCCC2`, 599 s.

As to `CC(C)N1C(=O)CSc2cnn(CC(=O)NC3CCCC3)c(=O)c21`, the RP-LC retention time is 688 s.

`Cc1ccc2c(c1)cc(S(=O)(=O)c1ccccc1)c(=O)n2CC(=O)N1CCCC1` had an RP-LC retention time of 817 s.
